# Results reported in US6858625B1, “Quinolinecarboxylic acid derivative or salts thereof” (Wakunaga Pharmaceutical Co., Ltd., priority 1999, dated 2005).
# Legend:
# [1] = Phototoxicity test (ear abnormality after UV exposure); assay type: in vivo, ICR mice; conditions: 40 mg/kg i.v., 4 h UV 320-400 nm; for Ear abnormality (point): 0 = no abnormality to 3 = severe erythema or edema; for Ear abnormality (frequency): affected/total mice
# Description: A phototoxicity test was performed by the following procedure. Female ICR mice (5 to 6 weeks old) were intravenously administered with the test compounds (40 mg/kg/10 mL), respectively, and were exposed for 4 hours to ultraviolet rays (320 to 400 nm, 1.8 mW/cm^2/sec). […] Ear abnormality was ranked by the following standards: no abnormality (0 point), mild erythema (1 point), medium erythema (2 points), and severe erythema or edema (3 points) The results are presented in Table 2.
# S. epidermidis IFO12293 = assay: Minimum growth inhibitory concentration (MIC), standard method of the Japan Society of Chemotherapy; assay type: cell-based; conditions: Staphylococcus epidermidis
# Description: (§1) Their minimum growth inhibitory concentrations (MICs: μg/mL) were determined in accordance with the standard method of the Japan Society of Chemotherapy [Chemotherapy, 29(1), 76 (1981)].
# E. coli NIHJ-JC2 = assay: as above; assay type: cell-based; conditions: Escherichia coli, NIHJJC2
# Description: as §1
# MRSA W200 = assay: as above; assay type: cell-based; conditions: Staphylococcus aureus
# Description: as §1
# B. subtilis ATCC6633 = assay: as above; assay type: cell-based; conditions: Bacillus subtilis
# Description: as §1
# E. faecalis IFO12580 = assay: as above; assay type: cell-based; conditions: Enterococcus faecalis
# Description: as §1
# M. luteus IFO12708 = assay: as above; assay type: cell-based; conditions: Micrococcus luteus
# Description: as §1
# P. aeruginosa IFO3445 = assay: as above; assay type: cell-based; conditions: Pseudomonas aeruginosa
# Description: as §1
# S. marcescens IFO3736 = assay: as above; assay type: cell-based; conditions: Serratia marcescens
# Description: as §1
# P. aeruginosa E-2 = assay: as above; assay type: cell-based; conditions: Pseudomonas aeruginosa, E2
# Description: as §1
# P. vulgaris IFO3167 = assay: as above; assay type: cell-based; conditions: Proteus vulgaris
# Description: as §1
# K. pneumoniae KC-1 = assay: as above; assay type: cell-based; conditions: Klebsiella pneumoniae, KC1
# Description: as §1
# S. aureus 209P = assay: as above; assay type: cell-based; conditions: Staphylococcus aureus
# Description: as §1
# [2] = test system: Isolated coccus 5 (clinically-isolated quinolone resistant pneumococci); assay: MIC against clinically-isolated quinolone resistant pneumococci, agar plates with 5% defibrinated sheep blood; assay type: cell-based; conditions: Isolated coccus 5, quinolone resistant pneumococcus
# Description: (§2) Using agar plates added with 5% defibrinated sheep blood, minimum growth inhibition concentrations (MICs; μg/mL) against certain pneumococci were determined in accordance with the standard method of the Japan Society of Chemotherapy [Chemotherapy, 29(1), 76 (1981)].
# [3] = test system: Isolated coccus 1 (clinically-isolated quinolone resistant pneumococci); assay: as above; assay type: cell-based; conditions: Isolated coccus 1, quinolone resistant pneumococcus
# Description: as §2
# [4] = In vivo pharmacokinetic study (absorption and excretion in dogs); set-up: species or system beagles; conditions: for AUC(0-t) / Cmax / Tmax / half-life / Urinary excretion rate: male beagles, per os; for AUC(0-t) / Cmax / Tmax / half-life: 10 mg/mL/kg in 0.5% methyl cellulose; for Urinary excretion rate: 10 mg/mL/kg, urine up to 24th hour
# Description: An investigation was made on the absorption and excretion of the compounds of the present invention in and from dogs. A 0.5% suspension of one of the test compounds in methyl cellulose (10 mg/mL/kg) was forcedly administered per os to 2-4 years old, male beagles fasted for 16 to 17 hours. After the administration, blood samples were collected on the 0.25th, 0.5th, 1st, 2nd, 4th, 6th, 8th and 24th hours, and serum samples were obtained. To determine urinary excretion rates, urine samples were also collected up to 24th hour after the administration. The concentrations of the test compound in the serum samples and urine samples were measured by the paper disk method making use of Bacillus subtilis ATCC6633 as a test bacterium, and the absorption and excretion were ranked.
# [5] = beagle, dog, po, 10 mg/kg, serum
Structure (SMILES),MIC (S. epidermidis IFO12293) [µg/mL],MIC (E. coli NIHJ-JC2) [µg/mL],MIC (MRSA W200) [µg/mL],MIC (B. subtilis ATCC6633) [µg/mL],MIC (E. faecalis IFO12580) [µg/mL],MIC (M. luteus IFO12708) [µg/mL],MIC (P. aeruginosa IFO3445) [µg/mL],MIC (S. marcescens IFO3736) [µg/mL],MIC (P. aeruginosa E-2) [µg/mL],MIC (P. vulgaris IFO3167) [µg/mL],MIC (K. pneumoniae KC-1) [µg/mL],MIC (S. aureus 209P) [µg/mL],MIC [2] [µg/mL],MIC [3] [µg/mL],Ear abnormality (point) ([1]; 0 hour after exposure),Ear abnormality (frequency) ([1]; 0 hour after exposure),Ear abnormality (point) ([1]; 24 hours after exposure),Ear abnormality (frequency) ([1]; 24 hours after exposure),Ear abnormality (point) ([1]; 48 hours after exposure),Ear abnormality (frequency) ([1]; 48 hours after exposure),other results
"CCNC1CN(c2c(F)cc3c(=O)c(C(=O)O)cn(-c4nc(N)c(F)cc4F)c3c2Br)C1 [Compound 1, 1-(6-amino-3,5-difluoropyridin-2-yl)-8-bromo-7-(3-ethylaminoazetidin-1-yl)-6-fluoro-4-oxo-1,4-dihydroquinoline-3-carboxylic acid]",0.025,0.025,0.013,0.025,0.39,0.39,0.78,1.56,1.56,0.1,0.05,0.013,0.12,0.03,0,0/3,0,0/3,0,0/3,"AUC(0-t) [4, 5]: 22800 ng·h/mL; Cmax [4, 5]: 4820 ng/mL; Tmax [4, 5]: 1 h; half-life [4, 5]: 3.8 h; Urinary excretion rate [4]: 19.8%; bioavailability ([4]; male, beagle, dog, serum, po, 10 mg/kg, administered orally, calculated from an AUC up to 24th hour after administration): 78%"
"CCNC1CN(c2c(F)cc3c(=O)c(C(=O)O)cn(-c4nc(N)c(F)cc4F)c3c2Br)C1.O=C(O)/C=C\C(=O)O [Compound 2, 1-(6-amino-3,5-difluoropyridin-2-yl)-8-bromo-7-(3-ethylaminoazetidin-1-yl)-6-fluoro-4-oxo-1,4-dihydroquino line-3-carboxylic acid maleate]",–,–,–,–,–,–,–,–,–,–,–,–,–,–,–,–,–,–,–,–,"AUC(0-t) [4, 5]: 17600 ng·h/mL; Cmax [4, 5]: 3730 ng/mL; Tmax [4, 5]: 1 h; half-life [4, 5]: 4.8 h; Urinary excretion rate [4]: 17.4%"
"CNC1CN(c2c(F)cc3c(=O)c(C(=O)O)cn(-c4nc(N)c(F)cc4F)c3c2Br)C1 [Comparative Compound 1, 1-(6-amino-3,5-difluoropyridin-2-yl)-8-bromo-7-(3-methylaminoazetidin-1-yl)-6-fluoro-4-oxo-1,4-dihydroquinoline-3-carboxylic acid]",0.05,0.013,0.025,0.05,0.39,0.39,0.39,1.56,0.78,0.1,0.025,0.013,0.5,0.06,0,0/3,0,0/3,0,0/3,"AUC(0-t) [4, 5]: 8540 ng·h/mL; Cmax [4, 5]: 2350 ng/mL; Tmax [4, 5]: 0.5 h; half-life [4, 5]: 2 h; Urinary excretion rate [4]: 14.8%"
"O=C(O)c1cn(C2CC2)c2cc(N3CCNCC3)c(F)cc2c1=O [CPFX, 1-cyclopropyl-6-fluoro-7-(1-piperadinyl)-1,4-dihydro-4-oxoquinoline-3-carboxylic acid]",1.56,0.025,0.78,0.05,1.56,3.13,0.39,0.2,0.78,0.05,0.05,0.2,–,–,–,–,–,–,–,–,–

# The next lines start with results.
MIC (S. epidermidis IFO12293) [µg/mL],MIC (E. coli NIHJ-JC2) [µg/mL],MIC (MRSA W200) [µg/mL],MIC (B. subtilis ATCC6633) [µg/mL],MIC (E. faecalis IFO12580) [µg/mL],MIC (M. luteus IFO12708) [µg/mL],MIC (P. aeruginosa IFO3445) [µg/mL],MIC (S. marcescens IFO3736) [µg/mL],MIC (P. aeruginosa E-2) [µg/mL],MIC (P. vulgaris IFO3167) [µg/mL],MIC (K. pneumoniae KC-1) [µg/mL],MIC (S. aureus 209P) [µg/mL],MIC [2] [µg/mL],MIC [3] [µg/mL],Structure (SMILES),Ear abnormality (point) ([1]; 0 hour after exposure),Ear abnormality (frequency) ([1]; 0 hour after exposure),Ear abnormality (point) ([1]; 24 hours after exposure),Ear abnormality (frequency) ([1]; 24 hours after exposure),Ear abnormality (point) ([1]; 48 hours after exposure),Ear abnormality (frequency) ([1]; 48 hours after exposure),other results
0.78,0.05,0.39,0.1,1.56,0.78,0.78,0.78,1.56,0.05,0.1,0.2,32,2,"C[C@H]1COc2c(N3CCN(C)CC3)c(F)cc3c(=O)c(C(=O)O)cn1c23 [LVFX, S(−)-9-fluoro-2,3-dihydro-3-methyl-10-(4-methyl-1-piperazinyl)-7-oxo-7H-pyrido[1,2,3-de][1,4]benzoxazine-6-carboxylic acid]",–,–,–,–,–,–,–
0.05,0.025,0.025,0.025,0.78,0.78,0.39,1.56,1.56,0.2,0.05,0.013,–,–,"CCNC1CN(c2c(F)cc3c(=O)c(C(=O)O)cn(-c4nc(N)c(F)cc4F)c3c2Cl)C1 [Comparative Compound 2, 1-(6-amino-3,5-difluoro-pyridin-2-yl)-8-chloro-7-(3-ethylaminoazetidin-1-yl)-6-fluoro-4-oxo-1,4-dihydroquinoline-3-carboxylic acid]",0.7,2/3,0,0/3,0,0/3,–
